Reference: BindingDB's records for doi:10.1021/jm030040o (Schering-Plough Research Institute, 2003)
pKi: −log10 of the molar value.

What follows are compounds tested against Genome polyprotein (Hepatitis C virus) (assay: Binding constant against hepatitis C virus (HCV) protease).
In the case of `CC[C@H](C)[C@H](NC(=O)[C@H](CC(C)C)NC(=O)[C@@H](CCC(=O)O)NC(=O)[C@H](CC(=O)O)NC(C)=O)C(=O)N[C@@H](CC1CCCCC1)C(=O)N[C@@H](CCS)C(=O)O` [2-[(S)-(S)-2-((R)-2-{(S)-2-[(R)-2-((S)-2-Acetylamino-3-carboxy-propionylamino)-4-(S)-carboxy-butyrylamino]-4-methyl-pentanoylamino}-3-methyl-pentanoylamino)-3-cyclohexyl-propionylamino]-4-mercapto-butyric acid], the pKi was 4.10. `CC[C@H](NC(=O)[C@H](CC1CCCCC1)NC(=O)[C@@H](NC(=O)[C@H](CC(C)C)NC(=O)[C@@H](CCC(=O)O)NC(=O)[C@H](CC(=O)O)NC(C)=O)[C@@H](C)CC)C(=O)O` [2-[(S)-(S)-2-((R)-2-{(S)-2-[(R)-2-((S)-2-Acetylamino-3-carboxy-propionylamino)-4-(S)-carboxy-butyrylamino]-4-methyl-pentanoylamino}-3-methyl-pentanoylamino)-3-cyclohexyl-propionylamino]-butyric acid] gave a pKi of 6.22. `CCCC[C@H](NC(=O)[C@H](CC1CCCCC1)NC(=O)[C@@H](NC(=O)[C@H](CC(C)C)NC(=O)[C@@H](CCC(=O)O)NC(=O)[C@H](CC(=O)O)NC(C)=O)[C@@H](C)CC)C(=O)O` [2-[(S)-(S)-2-((R)-2-{(S)-2-[(R)-2-((S)-2-Acetylamino-3-carboxy-propionylamino)-4-(S)-carboxy-butyrylamino]-4-methyl-pentanoylamino}-3-methyl-pentanoylamino)-3-cyclohexyl-propionylamino]-hexanoic acid] gave a pKi of 5.70. With `CCC[C@H](NC(=O)[C@H](CC1CCCCC1)NC(=O)[C@@H](NC(=O)[C@H](CC(C)C)NC(=O)[C@@H](CCC(=O)O)NC(=O)[C@H](CC(=O)O)NC(C)=O)[C@@H](C)CC)C(=O)O` [(S)-2-[(S)-2-((R)-2-{(S)-2-[(R)-2-((S)-2-Acetylamino-3-carboxy-propionylamino)-4-(S)-carboxy-butyrylamino]-4-methyl-pentanoylamino}-3-methyl-pentanoylamino)-3-cyclohexyl-propionylamino]-pentanoic acid] the pKi was 6.89. In the case of `CCSC[C@H](NC(=O)[C@H](CC1CCCCC1)NC(=O)[C@@H](NC(=O)[C@H](CC(C)C)NC(=O)[C@@H](CCC(=O)O)NC(=O)[C@H](CC(=O)O)NC(C)=O)[C@@H](C)CC)C(=O)O` [(S)-4-((S)-2-Acetylamino-3-carboxy-propionylamino)-4-((R)-(S)-1-{1-[(R)-(R)-1-((S)-1-carboxy-2-ethylsulfanyl-ethylcarbamoyl)-2-cyclohexyl-ethylcarbamoyl]-2-methyl-butylcarbamoyl}-3-methyl-butylcarbamoyl)-butyric acid], the pKi was 5.30. In the case of `CC[C@H](C)[C@H](NC(=O)[C@H](CC(C)C)NC(=O)[C@@H](CCC(=O)O)NC(=O)[C@H](CC(=O)O)NC(C)=O)C(=O)N[C@@H](CC1CCCCC1)C(=O)N[C@@H](CS)C(=O)O` [(S)-4-((S)-2-Acetylamino-3-carboxy-propionylamino)-4-((R)-(S)-1-{1-[(R)-(R)-1-((S)-1-carboxy-2-mercapto-ethylcarbamoyl)-2-cyclohexyl-ethylcarbamoyl]-2-methyl-butylcarbamoyl}-3-methyl-butylcarbamoyl)-butyric acid], the pKi was 6.92. Compound `CC[C@H](C)[C@H](NC(=O)[C@H](CC(C)C)NC(=O)[C@@H](CCC(=O)O)NC(=O)[C@H](CC(=O)O)NC(C)=O)C(=O)N[C@@H](CC1CCCCC1)C(=O)N[C@@H](CSC)C(=O)O` [(S)-4-((S)-2-Acetylamino-3-carboxy-propionylamino)-4-((R)-(S)-1-{1-[(R)-(R)-1-((S)-1-carboxy-2-methylsulfanyl-ethylcarbamoyl)-2-cyclohexyl-ethylcarbamoyl]-2-methyl-butylcarbamoyl}-3-methyl-butylcarbamoyl)-butyric acid] has a pKi of 6.30.
